Each block holds one compound with its values, some of them ahead of it.
Columns and labels:
[1] = target: T1, Matrix metalloproteinase-9 (Homo sapiens, UniProt P14780); experiment: Binding affinity to human MMP-9 assessed as residence time
Stromelysin-1 = Stromelysin-1 (Homo sapiens, UniProt P08254); experiment: Inhibition of human recombinant MMP-3 assessed as inhibition constant
Neutrophil collagenase [2] = target: T2, Neutrophil collagenase (Homo sapiens, UniProt P22894); experiment: Inhibition of MMP-8 (unknown origin) assessed as inhibition constant
T2 sequence (P22894 whole entry): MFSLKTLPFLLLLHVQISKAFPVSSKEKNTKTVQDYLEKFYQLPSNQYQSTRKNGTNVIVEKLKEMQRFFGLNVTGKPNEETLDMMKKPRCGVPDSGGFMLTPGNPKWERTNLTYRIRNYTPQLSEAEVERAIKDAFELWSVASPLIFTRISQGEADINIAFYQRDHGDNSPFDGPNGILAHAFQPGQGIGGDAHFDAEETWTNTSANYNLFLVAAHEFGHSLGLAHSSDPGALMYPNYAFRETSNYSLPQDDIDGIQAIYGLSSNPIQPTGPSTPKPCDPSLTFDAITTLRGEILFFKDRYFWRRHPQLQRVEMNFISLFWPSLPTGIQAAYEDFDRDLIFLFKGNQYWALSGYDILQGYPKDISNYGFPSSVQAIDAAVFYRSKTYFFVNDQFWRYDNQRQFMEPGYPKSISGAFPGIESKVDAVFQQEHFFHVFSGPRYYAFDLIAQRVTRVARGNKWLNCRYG

[3] = target: T3, 72 kDa type IV collagenase (Homo sapiens, UniProt P08253); experiment: Inhibition of MMP-2 (unknown origin) assessed as inhibition constant
T3 sequence (P08253 whole entry): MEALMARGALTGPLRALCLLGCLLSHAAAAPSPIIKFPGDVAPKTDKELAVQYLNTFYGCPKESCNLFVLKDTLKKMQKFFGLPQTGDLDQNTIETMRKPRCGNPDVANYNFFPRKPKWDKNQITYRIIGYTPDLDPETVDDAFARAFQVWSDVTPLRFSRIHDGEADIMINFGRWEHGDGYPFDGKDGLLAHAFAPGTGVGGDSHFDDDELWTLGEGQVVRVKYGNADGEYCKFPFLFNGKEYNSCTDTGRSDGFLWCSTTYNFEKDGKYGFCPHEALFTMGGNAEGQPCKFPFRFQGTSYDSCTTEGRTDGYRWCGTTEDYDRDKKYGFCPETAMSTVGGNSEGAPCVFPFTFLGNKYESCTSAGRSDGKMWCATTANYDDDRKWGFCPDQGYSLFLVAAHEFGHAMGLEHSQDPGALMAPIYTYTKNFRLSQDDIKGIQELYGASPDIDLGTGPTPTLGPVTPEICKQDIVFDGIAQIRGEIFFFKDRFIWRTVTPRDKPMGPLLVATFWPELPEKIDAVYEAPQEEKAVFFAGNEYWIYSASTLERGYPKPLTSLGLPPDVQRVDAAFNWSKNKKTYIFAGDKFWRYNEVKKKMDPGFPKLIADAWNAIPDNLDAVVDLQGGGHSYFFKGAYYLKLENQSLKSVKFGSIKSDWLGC

[4] = target: T1, Matrix metalloproteinase-9; experiment: Inhibition of MMP-9 (unknown origin) assessed as inhibition constant
physchem = conditions: water
Description: Solubility of the compound in water

Matrilysin = target: T4, Matrilysin (Homo sapiens, UniProt P09237); experiment: Inhibition of MMP-7 (unknown origin)
T4 sequence (P09237 whole entry): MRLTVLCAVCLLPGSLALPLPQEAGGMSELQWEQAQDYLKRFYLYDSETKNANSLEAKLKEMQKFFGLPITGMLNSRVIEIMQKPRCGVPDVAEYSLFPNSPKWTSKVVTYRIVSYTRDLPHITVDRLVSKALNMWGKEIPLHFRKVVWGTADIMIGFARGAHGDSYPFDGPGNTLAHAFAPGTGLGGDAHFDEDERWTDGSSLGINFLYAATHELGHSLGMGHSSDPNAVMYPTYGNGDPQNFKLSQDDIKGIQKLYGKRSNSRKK

[5] = target: T1, Matrix metalloproteinase-9; experiment: Inhibition of MMP-9 (unknown origin)
[6] = target: Matrix metalloproteinase-14 (Homo sapiens, UniProt P50281); experiment: Inhibition of MMP-14 (unknown origin)
[7] = target: T3, 72 kDa type IV collagenase; experiment: Inhibition of MMP-2 (unknown origin)
Interstitial collagenase [8] = target: T5, Interstitial collagenase (Homo sapiens, UniProt P03956); experiment: Inhibition of MMP-1 (unknown origin)
T5 sequence (P03956 whole entry): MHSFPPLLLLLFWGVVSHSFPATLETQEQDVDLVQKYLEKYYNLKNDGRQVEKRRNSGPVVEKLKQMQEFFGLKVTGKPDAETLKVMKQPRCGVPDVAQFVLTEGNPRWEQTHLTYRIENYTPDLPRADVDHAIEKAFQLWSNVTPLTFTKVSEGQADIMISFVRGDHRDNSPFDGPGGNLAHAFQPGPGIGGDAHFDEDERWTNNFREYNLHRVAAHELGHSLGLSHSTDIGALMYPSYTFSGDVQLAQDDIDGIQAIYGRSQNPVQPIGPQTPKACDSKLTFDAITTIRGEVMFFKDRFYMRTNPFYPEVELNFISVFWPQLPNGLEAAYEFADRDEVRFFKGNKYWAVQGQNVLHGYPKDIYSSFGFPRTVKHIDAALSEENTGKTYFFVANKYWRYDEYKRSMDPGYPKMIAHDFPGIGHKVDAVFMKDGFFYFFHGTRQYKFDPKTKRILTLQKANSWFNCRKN

Interstitial collagenase [9] = target: T5, Interstitial collagenase; experiment: Inhibition of MMP-1 (unknown origin) assessed as inhibition constant
Jurkat E6.1 [10] = experiment: Induction of apoptosis in human Jurkat E6.1 assessed as reduction in HDAC-8 expression at 20 uM measured after 48 hrs by annexin V-FITC/propidium iodide staining based flow cytometry analysis relative to control; type: functional; set-up: scale not given: the % may be the effect or the level left
Jurkat E6.1 [11] = experiment: Cytotoxicity against human Jurkat E6.1 cells incubated for 48 hrs by MTT assay; type: functional, cell-based; conditions: Jurkat E6.1, 48 h
Jurkat E6.1 [12] = experiment: Induction of apoptosis in human Jurkat E6.1 assessed as reduction in MMP-2 expression at 10 uM measured after 48 hrs by annexin V-FITC/propidium iodide staining based flow cytometry analysis relative to control; type: functional; set-up: scale not given: the % may be the effect or the level left
U-937 = experiment: Cytotoxicity against human U-937 cells incubated for 48 hrs by MTT assay; type: functional, cell-based; conditions: U-937, 48 h
Jurkat E6.1 [13] = experiment: Induction of apoptosis in human Jurkat E6.1 assessed as reduction in MMP-2 expression at 20 uM measured after 48 hrs by annexin V-FITC/propidium iodide staining based flow cytometry analysis relative to control; type: functional; set-up: scale not given: the % may be the effect or the level left
Jurkat E6.1 [14] = experiment: Induction of apoptosis in human Jurkat E6.1 assessed as reduction in HDAC-8 expression at 10 uM measured after 48 hrs by annexin V-FITC/propidium iodide staining based flow cytometry analysis relative to control; type: functional; set-up: scale not given: the % may be the effect or the level left
MOLT-4 = experiment: Cytotoxicity against human MOLT-4 cells incubated for 48 hrs by MTT assay; type: functional, cell-based; conditions: MOLT-4, 48 h
Histone deacetylase 8 = target: T6, Histone deacetylase 8 (Homo sapiens, UniProt Q9BY41); experiment: Inhibition of HDAC-8 (unknown origin)
T6 sequence (Q9BY41 whole entry): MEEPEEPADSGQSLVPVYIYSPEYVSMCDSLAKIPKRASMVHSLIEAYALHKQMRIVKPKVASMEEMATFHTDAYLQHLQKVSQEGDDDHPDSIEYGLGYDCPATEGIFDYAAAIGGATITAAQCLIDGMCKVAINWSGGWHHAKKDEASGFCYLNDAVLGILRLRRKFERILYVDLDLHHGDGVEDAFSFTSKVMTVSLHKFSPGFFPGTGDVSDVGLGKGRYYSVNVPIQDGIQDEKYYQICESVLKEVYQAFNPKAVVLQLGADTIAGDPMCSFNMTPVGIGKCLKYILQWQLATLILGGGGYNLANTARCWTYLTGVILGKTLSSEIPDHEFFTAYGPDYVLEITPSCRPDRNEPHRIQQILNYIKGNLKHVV

[15] = target: Macrophage metalloelastase (Homo sapiens, UniProt P39900); experiment: Inhibition of MMP-12 (unknown origin)
Macrophage metalloelastase, sequence (P39900 whole entry): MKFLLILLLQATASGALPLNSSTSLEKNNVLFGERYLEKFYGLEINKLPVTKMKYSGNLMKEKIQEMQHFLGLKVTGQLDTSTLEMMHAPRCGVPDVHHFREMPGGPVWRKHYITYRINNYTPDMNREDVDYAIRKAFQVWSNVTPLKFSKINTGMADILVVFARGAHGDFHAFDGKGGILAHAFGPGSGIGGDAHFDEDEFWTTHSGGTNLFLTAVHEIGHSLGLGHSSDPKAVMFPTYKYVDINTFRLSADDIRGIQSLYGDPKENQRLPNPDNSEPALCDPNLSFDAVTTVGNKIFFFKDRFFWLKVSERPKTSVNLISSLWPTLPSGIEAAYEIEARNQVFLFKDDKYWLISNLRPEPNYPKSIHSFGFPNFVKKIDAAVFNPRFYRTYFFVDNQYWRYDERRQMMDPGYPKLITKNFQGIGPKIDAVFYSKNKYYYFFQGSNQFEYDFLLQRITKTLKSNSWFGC

Jurkat E6.1 [16] = experiment: Induction of apoptosis in human Jurkat E6.1 assessed as reduction in MMP-2 expression at 2 uM measured after 48 hrs by annexin V-FITC/propidium iodide staining based flow cytometry analysis relative to control; type: functional; set-up: scale not given: the % may be the effect or the level left
Jurkat E6.1 [17] = experiment: Induction of apoptosis in human Jurkat E6.1 assessed as reduction in HDAC-8 expression at 2 uM measured after 48 hrs by annexin V-FITC/propidium iodide staining based flow cytometry analysis relative to control; type: functional; set-up: scale not given: the % may be the effect or the level left
Jurkat E6.1 [18] = experiment: Induction of apoptosis in human Jurkat E6.1 assessed as reduction in MMP-2 expression at 5 uM measured after 48 hrs by annexin V-FITC/propidium iodide staining based flow cytometry analysis relative to control; type: functional; set-up: scale not given: the % may be the effect or the level left
Jurkat E6.1 [19] = experiment: Induction of apoptosis in human Jurkat E6.1 assessed as reduction in HDAC-8 expression at 5 uM measured after 48 hrs by annexin V-FITC/propidium iodide staining based flow cytometry analysis relative to control; type: functional; set-up: scale not given: the % may be the effect or the level left
Neutrophil collagenase [20] = target: T2, Neutrophil collagenase; experiment: Inhibition of MMP-8 (unknown origin)

T1 sequence (P14780 whole entry): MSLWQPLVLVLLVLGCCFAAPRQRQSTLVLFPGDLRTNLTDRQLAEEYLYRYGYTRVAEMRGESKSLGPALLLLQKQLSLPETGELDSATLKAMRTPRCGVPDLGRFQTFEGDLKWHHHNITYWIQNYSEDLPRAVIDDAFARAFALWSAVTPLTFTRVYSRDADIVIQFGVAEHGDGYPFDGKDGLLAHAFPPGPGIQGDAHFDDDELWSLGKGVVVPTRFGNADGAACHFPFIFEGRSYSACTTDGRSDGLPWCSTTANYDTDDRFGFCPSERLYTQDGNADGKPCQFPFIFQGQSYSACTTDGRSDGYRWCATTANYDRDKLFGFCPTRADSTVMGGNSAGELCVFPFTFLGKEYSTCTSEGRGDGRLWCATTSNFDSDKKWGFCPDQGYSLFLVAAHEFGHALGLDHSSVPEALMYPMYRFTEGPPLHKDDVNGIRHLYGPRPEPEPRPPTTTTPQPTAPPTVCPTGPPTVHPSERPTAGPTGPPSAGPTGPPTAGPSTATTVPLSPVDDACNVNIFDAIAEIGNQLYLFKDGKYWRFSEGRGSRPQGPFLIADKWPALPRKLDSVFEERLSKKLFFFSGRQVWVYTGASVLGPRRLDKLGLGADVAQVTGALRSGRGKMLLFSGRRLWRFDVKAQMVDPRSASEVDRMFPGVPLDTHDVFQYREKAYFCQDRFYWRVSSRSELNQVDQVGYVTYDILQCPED
Stromelysin-1, sequence (P08254 whole entry): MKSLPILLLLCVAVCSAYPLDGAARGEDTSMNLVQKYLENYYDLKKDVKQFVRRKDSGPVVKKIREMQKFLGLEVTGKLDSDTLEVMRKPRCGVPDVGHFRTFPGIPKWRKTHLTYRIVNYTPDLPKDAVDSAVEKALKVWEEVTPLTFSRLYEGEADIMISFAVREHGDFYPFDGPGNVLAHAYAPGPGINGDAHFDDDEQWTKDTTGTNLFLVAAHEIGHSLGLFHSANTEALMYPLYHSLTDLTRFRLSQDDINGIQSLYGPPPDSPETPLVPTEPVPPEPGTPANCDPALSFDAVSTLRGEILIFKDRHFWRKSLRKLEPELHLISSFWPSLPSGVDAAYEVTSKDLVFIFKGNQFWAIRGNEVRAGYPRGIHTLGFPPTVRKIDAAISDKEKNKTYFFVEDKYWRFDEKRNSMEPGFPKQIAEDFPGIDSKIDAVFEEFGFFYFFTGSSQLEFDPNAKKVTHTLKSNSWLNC

SMILES: O=S(=O)(CC1CS1)c1ccc(Oc2ccccc2)cc1 (stereo not drawn)
TIME [1]: 0.223 h

Ki (Stromelysin-1): 0.043 µM
SMILES: COc1ccc(S(=O)(=O)N(Cc2ccccc2)[C@@H](C(=O)NO)C(C)C)cc1

Ki (Neutrophil collagenase [2]): 0.0044 µM
Ki [3]: 0.154 µM
Ki [4]: 0.059 µM
SMILES: CN1C(=O)N(C[C@H](C(=O)NO)[C@H](CC2CCCC2)C(=O)N2CCCCC2)C(=O)C1(C)C

SMILES: N=C(N)NCCC[C@H](N)C(=O)Nc1ccc(Oc2ccc(S(=O)(=O)CC3CS3)cc2)cc1 (stereo partly drawn)
solubility (physchem): > 10000 µg/mL

IC50 (Matrilysin): 0.023 µM
IC50 [5]: 0.027 µM
IC50 [6]: 0.04 µM
IC50 [7]: 0.039 µM
IC50 (Interstitial collagenase [8]): 0.009 µM
SMILES: CNC(=O)[C@@H](NC(=O)[C@H](CC(C)C)NC(=O)[C@@H](S)CCN1C(=O)N(C)C(C)(C)C1=O)C(C)(C)C [REBIMASTAT]

Ki (Interstitial collagenase [9]): > 5 µM
SMILES: O=C(C[C@H](CSc1ccccc1)C(=O)O)c1ccc(-c2ccc(Cl)cc2)cc1 [TANOMASTAT]

SMILES: CC(C)NC(=O)C(CCC(=O)O)NC(=O)Cc1ccc(Cl)cc1 (stereo not drawn)
Activity (Jurkat E6.1 [10]): 58%
IC50 (Jurkat E6.1 [11]): 11.5 µM
Activity (Jurkat E6.1 [12]): 42%
IC50 (U-937): 29.4 µM
Activity (Jurkat E6.1 [13]): 58%
Activity (Jurkat E6.1 [14]): 32%
IC50 (MOLT-4): 11.8 µM

IC50 (Histone deacetylase 8): 2.89 µM
IC50 [15]: 138 µM
IC50 [5]: 4.83 µM
IC50 (Neutrophil collagenase [20]): 206 µM
IC50 [6]: 56.3 µM
IC50 [7]: 6.4 µM
IC50 (Interstitial collagenase [8]): > 250 µM
SMILES: O=C(O)CCC(NC(=O)Cc1ccc(Br)cc1)C(=O)NCc1ccc([N+](=O)[O-])cc1 (stereo not drawn)
IC50 (Jurkat E6.1 [11]): 2.77 µM
IC50 (U-937): 10.6 µM
Activity (Jurkat E6.1 [16]): 46%
Activity (Jurkat E6.1 [17]): 48%
Activity (Jurkat E6.1 [18]): 70%
Activity (Jurkat E6.1 [19]): 68%
IC50 (MOLT-4): 4.58 µM

Reference: ChEMBL document CHEMBL5230143, “Inhibitors of gelatinases (MMP-2 and MMP-9) for the management of hematological malignancies” (Eur J Med Chem, 2021)
